# Source: patent publication US20140137274A1, “INDUCED MALIGNANT STEM CELLS” (LSIP, LLC, priority 2011, published 2014)
# System: cancer-related miRNAs
# Test: miRNA expression microarray (SurePrint G3 Human miRNA Microarray Rel.16.0)
# Settings: logarithmic (log2) value of quotient vs control
# Protocol: Total RNA was prepared from each of six induced malignant stem cells, one induced non-malignant stem cell, and one induced pluripotent stem cell as mentioned above, and the prepared total RNAs were used in Agilent SurePrint G3 Human miRNA Microarray Rel.16.0 to detect abnormal expression (increased or reduced/lost expression) of non-coding RNAs such as endogenous cancer-related microRNAs in the induced malignant stem cells.
# Complete Labeling Reagent and Hyb Kit in accordance with the Agilent protocol. To be specific, each sample total RNA (100 ng) was dephosphorylated with Calf Intestine Alkaline Phosphatase (CIP), and the RNA molecule on its 3′ terminal side was labeled with a cyanine 3-cytidine bisphosphate (pCp-Cy3) molecule using T4 RNA Ligase.
# The RNA samples labeled in (14-2-3) were hybridized with SurePrint G3 Human miRNA Microarray Rel.16.0 using Agilent miRNA Complete Labeling Reagent and Hyb Kit. To be specific, each of the labeled RNAs was added to a hybridization buffer and allowed to hybridize on SurePrint G3 Human miRNA Microarray Rel.16.0 for 20 hours. After washing, the DNA microarray image was scanned by Agilent Microarray Scanner, and fluorescence signals from the spots were digitized by Feature Extraction Software (v.10.7.3.1).
# The miRNAs were annotated using miRBase Release 18, and hybridization was performed onto a microarray chip with the probes designed for the miRNAs shown in the following table (refer to Table 31 below).
# In this analysis, the normalized value of the digital data for the hybridization of a subject cell (induced malignant stem cell) sample was divided by the normalized value from the digital data for the hybridization of a control cell sample and the quotient was used as a measure of variation in expression. Probes for which the quotients deviated from 1 (i.e., log21=0) were considered to indicate a variation in expression; those showing quotients greater than 2 (log22=1) or smaller than 0.5 (log20.5=−1) were selected. For each of the comparisons shown below, the genes shown in the tyrosine kinase list and those shown in the cancer drug targets list were analyzed to make respective lists of the genes showing quotients greater than 2 (log22=1) or smaller than 0.5 (log20.5=−1), as compared with the quotient for the control (taken as 1). The analysis was performed using GeneSpring 12.1.
# The Normalized column represents a variation in expression in logarithmic values.
Substance,"Normalized (variation in microRNA expression, subject cell / control cell) ([Ngc1_7]vs [Nib2_17])","Normalized (variation in microRNA expression, subject cell / control cell) ([cc4_c]vs [Nfb2_17])","Normalized (variation in microRNA expression, subject cell / control cell) ([gc2_1]vs [Nfb2_17])","Normalized (variation in microRNA expression, subject cell / control cell) ([gc2_5]vs [Nfb2_17])","Normalized (variation in microRNA expression, subject cell / control cell) ([gc2_10]vs +Nfb2_17])","Normalized (variation in microRNA expression, subject cell / control cell) ([gc1_6]vs [Ngc1_7])"
hsa-miR-21-5p (TCAACATCAGTCTGATAAGC; chemistry not given here),1.136,2.904,−6.311,−6.38,−5.844,
hsa-let-7d-5p (AACTATGCAACCTACTACC; chemistry not given here),,,,,,−1.545
hsa_miR-301a-3p (GCTTTGACAATACTATTGCAC; chemistry not given here),,−1.212,,,,
hsa-miR-222-3p (ACCCAGTAGCCAG; chemistry not given here),,1.861,,,,
hsa-let-7e-5p (AACTATACAACCTCCTACC; chemistry not given here),3.356,4.793,1.601,,2.18,−2.684
hsa-miR-96-5p (AGCAAAAATGTGCTAGTGCCAA; chemistry not given here),,1.093,,,,
hsa-miR-27a-3p (GCGGAACTTAGCCACTG; chemistry not given here),1.084,3.755,,,,−1.047
hsa-miR-15a-5p (CACAAACCATTATGTGCTGCT; chemistry not given here),,1.163,,,,
